How the values were obtained:
Assay type in all cases: in vivo
Setaria faberi (SETFA) [1] = assay: Pre-emergence Test (glasshouse, percentage damage to the plant); settings: 1000 g/ha unless otherwise stated, five-point scale
[2] = test system: Ipomoea hederacea (IPOHE); assay: as above; settings: 1000 g/ha unless otherwise stated, five-point scale
Zea mays (ZEAMX) [3] = assay: Post-emergence Test (glasshouse, percentage damage to the plant); settings: post-emergence spray, 1000 g/ha unless otherwise stated, evaluated after 13 days
Outline: (§1)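 Scored 13 days after spraying as percentage plant damage in five bands (5=81–100%, 4=61–80%, 3=41–60%, 2=21–40%, 1=0–20%). Spray at 1000 g/ha unless stated, in acetone/water 50:50 plus 0.5% Tween 20, onto sown glasshouse pots (24/16 °C, 14 h light, 65% humidity).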

Setaria faberi (SETFA) [4] = assay: as above; settings: post-emergence spray, 1000 g/ha unless otherwise stated, evaluated after 13 days
Outline: as §1

[5] = test system: Ipomoea hederacea (IPOHE); assay: as above; settings: post-emergence spray, 1000 g/ha unless otherwise stated, evaluated after 13 days
Outline: as §1

[6] = test system: Echinochloa crus-galli (ECHCG); assay: as above; settings: post-emergence spray, 1000 g/ha unless otherwise stated, evaluated after 13 days
Outline: (§2)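 Seeds sown in standard soil in a glasshouse (24/16 °C day/night, 14 h light, 65% humidity), then sprayed with an aqueous solution of the compound formulated in acetone/water 50:50 with 0.5% Tween 20 at 1000 g/ha unless otherwise stated. Percentage damage was scored after 13 days on a five-point scale (5=81-100%; 1=0-20%).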

[7] = test system: Abutilon theophrasti (ABUTH); assay: as above; settings: post-emergence spray, 1000 g/ha unless otherwise stated, evaluated after 13 days
Outline: as §2

[8] = test system: Amaranthus retoflexus (AMARE); assay: as above; settings: post-emergence spray, 1000 g/ha unless otherwise stated, evaluated after 13 days
Outline: as §2

[9] = test system: Amaranthus retoflexus (AMARE); assay: Pre-emergence Test (glasshouse, percentage damage to the plant); settings: 1000 g/ha unless otherwise stated, five-point scale
[10] = test system: Abutilon theophrasti (ABUTH); assay: as above; settings: 1000 g/ha unless otherwise stated, five-point scale
Zea mays (ZEAMX) [11] = assay: as above; settings: 1000 g/ha unless otherwise stated, five-point scale
[12] = test system: Echinochloa crus-galli (ECHCG); assay: as above; settings: 1000 g/ha unless otherwise stated, five-point scale

SMILES	percentage damage to the plant, SETFA (Setaria faberi (SETFA) [1])	percentage damage to the plant, IPOHE [2]	Post-emergence Test ZEAMX, percentage damage to the plant (five-point scale) (Zea mays (ZEAMX) [3])	Post-emergence Test SETFA, percentage damage to the plant (five-point scale) (Setaria faberi (SETFA) [4])	Post-emergence Test IPOHE, percentage damage to the plant (five-point scale) [5]	Post-emergence Test ECHCG, percentage damage to the plant (five-point scale) [6]	Post-emergence Test ABUTH, percentage damage to the plant (five-point scale) [7]	Post-emergence Test AMARE, percentage damage to the plant (five-point scale) [8]	percentage damage to the plant, AMARE [9]	percentage damage to the plant, ABUTH [10]	percentage damage to the plant, ZEAMX (Zea mays (ZEAMX) [11])	percentage damage to the plant, ECHCG [12]
CCn1c(C)c(-c2ccc(OC)c(F)c2)c(=O)c(C(=O)O)c1-c1ccc(Cl)c(Cl)c1 [Compound 102, 2-(3,4-dichlorophenyl)-1-ethyl-5-(3-fluoro-4-methoxy-phenyl)-6-methyl-4-oxo-pyridine-3-carboxylic acid]	4 (4=61-80%)	3 (3=41-60%)	1 (1=0-20%)	4 (4=61-80%)	3 (3=41-60%)	3 (3=41-60%)	3 (3=41-60%)	3 (3=41-60%)	2 (2=21-40%)	3 (3=41-60%)	1 (1=0-20%)	2 (2=21-40%)
CCOc1cccc(-c2c(C)n(CC)c(-c3ccc(Cl)c(Cl)c3)c(C(=O)O)c2=O)c1 [Compound 98, 2-(3,4-dichlorophenyl)-5-(3-ethoxyphenyl)-1-ethyl-6-methyl-4-oxo-pyridine-3-carboxylic acid]	3 (3=41-60%)	1 (1=0-20%)	1 (1=0-20%)	1 (1=0-20%)	2 (2=21-40%)	1 (1=0-20%)	2 (2=21-40%)	1 (1=0-20%)	2 (2=21-40%)	1 (1=0-20%)	1 (1=0-20%)	1 (1=0-20%)
CCn1c(C)c(-c2ccc(C(C)(C)C)cc2)c(=O)c(C(=O)O)c1-c1ccc(Cl)c(Cl)c1 [Compound 55, 5-(4-tert-butylphenyl)-2-(3,4-dichlorophenyl)-1-ethyl-6-methyl-4-oxo-pyridine-3-carboxylic acid]	1 (1=0-20%)	1 (1=0-20%)	1 (1=0-20%)	1 (1=0-20%)	1 (1=0-20%)	1 (1=0-20%)	1 (1=0-20%)	1 (1=0-20%)	1 (1=0-20%)	1 (1=0-20%)	1 (1=0-20%)	1 (1=0-20%)
CCOc1cc(-c2c(C)n(CC)c(-c3ccc(Cl)c(Cl)c3)c(C(=O)O)c2=O)ccc1C#N [Compound 107, 5-(4-cyano-3-ethoxy-phenyl)-2-(3,4-dichlorophenyl)-1-ethyl-6-methyl-4-oxo-pyridine-3-carboxylic acid]	5 (5=81-100%)	1 (1=0-20%)	2 (2=21-40%)	2 (2=21-40%)	3 (3=41-60%)	2 (2=21-40%)	3 (3=41-60%)	4 (4=61-80%)	4 (4=61-80%)	1 (1=0-20%)	1 (1=0-20%)	4 (4=61-80%)
CCn1c(C)c(-c2ccc(F)c(F)c2)c(=O)c(C(=O)O)c1-c1ccc(Cl)c(Cl)c1 [Compound 104, 2-(3,4-dichlorophenyl)-5-(3,4-difluorophenyl)-1-ethyl-6-methyl-4-oxo-pyridine-3-carboxylic acid]	4 (4=61-80%)	1 (1=0-20%)	1 (1=0-20%)	4 (4=61-80%)	1 (1=0-20%)	3 (3=41-60%)	3 (3=41-60%)	3 (3=41-60%)	4 (4=61-80%)	2 (2=21-40%)	1 (1=0-20%)	2 (2=21-40%)
CCn1c(C)c(-c2ccn(C)c(=O)c2)c(=O)c(C(=O)O)c1-c1ccc(Cl)c(Cl)c1 [Compound 58, 2-(3,4-dichlorophenyl)-1-ethyl-6-methyl-5-(1-methyl-2-oxo-4-pyridyl)-4-oxo-pyridine-3-carboxylic acid]	1 (1=0-20%)	1 (1=0-20%)	1 (1=0-20%)	1 (1=0-20%)	1 (1=0-20%)	1 (1=0-20%)	1 (1=0-20%)	1 (1=0-20%)	1 (1=0-20%)	1 (1=0-20%)	1 (1=0-20%)	1 (1=0-20%)
CCn1c(C)c(-c2cccs2)c(=O)c(C(=O)O)c1-c1ccc(Cl)c(Cl)c1 [Compound 74, 2-(3,4-dichlorophenyl)-1-ethyl-6-methyl-4-oxo-5-(2-thienyl)pyridine-3-carboxylic acid]	4 (4=61-80%)	1 (1=0-20%)	2 (2=21-40%)	3 (3=41-60%)	2 (2=21-40%)	3 (3=41-60%)	3 (3=41-60%)	1 (1=0-20%)	1 (1=0-20%)	2 (2=21-40%)	1 (1=0-20%)	3 (3=41-60%)
CCn1c(C)c(-c2ccc(OC)c(Cl)c2)c(=O)c(C(=O)O)c1-c1ccc(Cl)c(Cl)c1 [Compound 101, 5-(3-chloro-4-methoxy-phenyl)-2-(3,4-dichlorophenyl)-1-ethyl-6-methyl-4-oxo-pyridine-3-carboxylic acid]	4 (4=61-80%)	1 (1=0-20%)	2 (2=21-40%)	3 (3=41-60%)	2 (2=21-40%)	3 (3=41-60%)	3 (3=41-60%)	3 (3=41-60%)	2 (2=21-40%)	2 (2=21-40%)	2 (2=21-40%)	2 (2=21-40%)
CCn1c(C)c(-c2ccc(Cl)c(C#N)c2)c(=O)c(C(=O)O)c1-c1ccc(Cl)c(Cl)c1 [Compound 57, 5-(4-chloro-3-cyano-phenyl)-2-(3,4-dichlorophenyl)-1-ethyl-6-methyl-4-oxo-pyridine-3-carboxylic acid]	4 (4=61-80%)	2 (2=21-40%)	2 (2=21-40%)	4 (4=61-80%)	2 (2=21-40%)	3 (3=41-60%)	3 (3=41-60%)	4 (4=61-80%)	3 (3=41-60%)	1 (1=0-20%)	2 (2=21-40%)	3 (3=41-60%)
